Experimental data taken from patent publication US12076320B2, “Diarylpyrazole compound, composition comprising same, and use thereof” (Shenzhen TargetRx, Inc., priority 2018, dated 2024).

How the values were obtained:
[1] = Metabolic stability evaluation in human liver microsomes; format: in vitro ADME; details: human liver microsomes 0.5 mg/mL, compound 1 μM; for microsomal CLint at 1 μM / half-life at 1 μM: pH 7.4; for microsomal CLint at 1 μM: read-out: HLM CL; for half-life at 1 μM: read-out: HLM T1/2
Procedure: (§1) Microsome assay: human liver microsomes (HLM): 0.5 mg/mL, Xenotech; rat liver microsomes (RLM): 0.5 mg/mL, Xenotech; coenzyme (NADPH/NADH): 1 mM, Sigma Life Science; magnesium chloride: 5 mM, 100 mM phosphate buffer (pH 7.4).
(§2) Preparation of stock solutions: Powders of the example compounds and the control compound were accurately weighed and dissolved in DMSO to 5 mM respectively.
(§3) Preparation of phosphate buffer (100 mM, pH 7.4): A pre-prepared 0.5 M potassium dihydrogen phosphate solution (150 mL) was mixed with a pre-prepared 0.5 M dibasic potassium phosphate solution (700 mL). The pH of the mixture was adjusted to 7.4 with a 0.5 M dibasic potassium phosphate solution. The mixture was diluted 5-fold with ultrapure water before use, and magnesium chloride was added to obtain a phosphate buffer (100 mM) containing 100 mM potassium phosphate, 3.3 mM magnesium chloride, pH 7.4.
(§4) A NADPH regeneration system solution (containing 6.5 mM NADP, 16.5 mM G-6-P, 3 U/mL G-6-P D, 3.3 mM magnesium chloride) was prepared and placed on wet ice before use.
(§5) Preparation of stop solution: an acetonitrile solution containing 50 ng/mL propranolol hydrochloride and 200 ng/mL tolbutamide (internal standard). 25057.5 μL of phosphate buffer (pH 7.4) was added into a 50 mL centrifuge tube, to which 812.5 μL of human liver microsomes were then added and mixed well to obtain a liver microsome dilution with a protein concentration of 0.625 mg/mL. 25057.5 μL of phosphate buffer (pH 7.4) was added into a 50 mL centrifuge tube, to which 812.5 μL of SD rat liver microsomes were then added and mixed well to obtain a liver microsome dilution with a protein concentration of 0.625 mg/mL.
(§6) Incubation of the samples: The stock solutions of the respective compounds were respectively diluted to 0.25 mM with an aqueous solution containing 70% acetonitrile, and used as a working solution, ready for use. 398 μL of the dilutions of human liver microsomes or rat liver microsomes were added to 96-well incubation plates (N=2), respectively, and 2 μL of 0.25 mM working solution was added respectively and nixed.
(§7) Metabolic stability assay: 300 μL of pre-chilled stop solution was added to each well of 96-well deep well plates and placed on ice as stop plates. The 96-well incubation plates and NADPH regeneration system were placed in a 37° C. water bath, shaken at 100 rpm and pre-incubated for 5 min. 80 μL of incubation solution was taken out from each well of the incubation plates, added to the stop plates, mixed well, and replenished with 20 μL of NADPH regeneration system solution. The resulting mixture was used as a 0-min sample. 80 μL of NADPH regeneration system solution was added to each well of the incubation plates to start the reaction and start counting. […] At 10, 30, and 90 minutes of the reaction, respectively, 100 μL of the reaction solutions were taken out, added to the stop plates, and vortexed for 3 minutes to stop the reaction. The stop plates were centrifuged at 5000×g at 4° C. for 10 min. 100 μL of the supernatant was taken out, added to a 96-well plate pre-added with 100 μL of distilled water, mixed well, and analyzed by LC-MS/MS.
(§8) Data analysis: The peak areas of the corresponding compounds and internal standard were detected by LC-MS/MS system, and the ratio of the peak area of the compounds to the internal standard was calculated.

[2] = Metabolic stability evaluation in rat liver microsomes; format: in vitro ADME, SD rat; details: rat liver microsomes 0.5 mg/mL, compound 1 μM; for microsomal CLint at 1 μM / half-life at 1 μM: SD, pH 7.4; for microsomal CLint at 1 μM: read-out: RLM CL; for half-life at 1 μM: read-out: RLM T1/2
Procedure: as §1, §2, §3, §4, §5, §6, §7, §8

[3] = test system: HT-29 colorectal cancer cell line with BRAF V600E mutation; experiment: Cytotoxicity assay (CTG, 72 hours); format: cell-based; details: Homo sapiens, HT-29 cells
Procedure: The cell viability was detected by trypan blue exclusion method to ensure that the cell viability was greater than 90%. The cells were inoculated in a 96-well plate and cultured overnight under the condition of 37° C. and 5% CO2. The 10-fold drug solutions were prepared by a 3.16-fold serial dilution starting from a maximum concentration of 1 μM, resulting in 9 concentrations. 10 μL of the drug solutions were added to each well of the 96-well plate in triplicate, and the incubation was further continued for 72 hours. An equal volume of CTG solution was added to each well, and the cell plate w as shaked on an orbital shaker for 5 minutes to lyse the cells. The cell plate was placed at room temperature for 20 minutes to stabilize the luminescence signal, and the luminescence values were then read on a SpectraMax multi-label microplate reader (MD, 2104-0010A). The data were analyzed with GraphPad Prism 5.0 software, and fitted using the non-linear S-curve regression to obtain a dose-effect curve, from which IC50 values were calculated accordingly.

[4] = at weakly acidic and neutral pH; cited from earlier work

Structure (SMILES) | microsomal CLint at 1 μM [1] [µL/min/mg] | half-life at 1 μM [1] [h] | microsomal CLint at 1 μM [2] [µL/min/mg] | half-life at 1 μM [2] [h] | IC50 [3] [nM] | water-solubility [4] | HLM CL [1] [µL/min/mg] | HLM T1/2 [1] [h] | RLM CL [2] [µL/min/mg] | RLM T1/2 [2] [h]
[2H]C([2H])([2H])C([2H])(n1cc(-c2ccnc(NC[C@H](C)NC(=O)OC)n2)c(-c2cc(Cl)cc(NS(C)(=O)=O)c2F)n1)C([2H])([2H])[2H] (single isomer, unassigned) [L-1] | 9.47 | 2.44 | 11.8 | 1.95 |  |  |  |  |  | 
[2H]C([2H])([2H])OC(=O)N[C@@H](C)CNc1nccc(-c2cn(C(C)C)nc2-c2cc(Cl)cc(NS(C)(=O)=O)c2F)n1 (single isomer, unassigned) [L-2] | 9.07 | 2.55 | 16.8 | 1.38 |  |  |  |  |  | 
[2H]C([2H])([2H])OC(=O)N[C@@H](C)CNc1nccc(-c2cn(C([2H])(C([2H])([2H])[2H])C([2H])([2H])[2H])nc2-c2cc(Cl)cc(NS(C)(=O)=O)c2F)n1 (single isomer, unassigned) [L-3] | 4.87 | 4.75 | 11.3 | 2.04 |  |  |  |  |  | 
[2H]C([2H])([2H])[C@H](NC(=O)OC)C([2H])([2H])Nc1nccc(-c2cn(C(C)C)nc2-c2cc(Cl)cc(NS(C)(=O)=O)c2F)n1 (single isomer, unassigned) [L-4-S] | 12.5 | 1.85 | 16.7 | 1.38 |  |  |  |  |  | 
COC(=O)N[C@@H](C)CNc1nccc(-c2cn(C(C)C)nc2-c2cc(Cl)cc(NS(C)(=O)=O)c2F)n1 [Encorafenib, (S)-methyl (1-((4-(3-(5-chloro-2-fluoro-3-(methylsulfonamido)phenyl)-1-isopropyl-1H-pyrazol-4-yl)pyrimidin-2-yl)amino)propan-2-yl)carbamate, reference compound] | 17.3 | 1.33 | 17.4 | 1.33 | 8.96 | poor |  |  |  | 
[2H]C([2H])([2H])[C@H](NC(=O)OC)C([2H])([2H])Nc1nccc(-c2cn(C([2H])(C([2H])([2H])[2H])C([2H])([2H])[2H])nc2-c2cc(Cl)cc(NS(C)(=O)=O)c2F)n1 [L-5-S, (S)-methyl (1-((4-(3-(5-chloro-2-fluoro-3-(methylsulfonamido)phenyl)-1-(propan-2-yl-d7)-3-1H-pyrazol-4-yl)pyrimidin-2-yl)amino)propan-2-yl-1,1,3,3,3-d5)carbamate] |  |  |  |  |  |  | 5.69 | 4.0628 | 10.22 | 2.2595
